# Assay results taken from article PMC5549732 (PLoS ONE, 2017).
# “And” between values parts separate entries of the source, which are not always exact repeats. Identical values can stand only once.
# Tests used:
# [1] = test system: HCT116-luc2 subcutaneous xenografts; assay: Caliper tumor volume measurement of subcutaneous HCT116-luc2 xenografts
# Experimental: Specific pathogen-free nu/nu (Crl:NU-Fox1^nu, 6–8 weeks old) and CD-1 (Crl:CD1[ICR]) mice were purchased from Charles River Laboratories (Wilmington, MA). Mice were housed in a controlled environment (72°F; 12:12-h light-dark cycle) under specific-pathogen free conditions with water and food provided ad libitum. To induce tumor growth, 2.5 x10^6 of HCT116-luc2 cells were subcutaneously injected on the right flank of a nude mouse. Two weeks after cancer cell inoculation, when the tumor volume reached an appropriate size (measured by caliper and calculated by the formula 0.5 x length x width^2), animals were randomized into vehicle or different sorafenib treatment groups as indicated. Sorafenib was prepared in water containing 6.2% of ethanol and 6.2% of Kolliphor EL (Sigma-Aldrich, St. Louis, MO). The treatment was given daily 5 times a week by oral gavage at 15 μl per gram of body weight.
# We initiated the treatment when the average HCT116-luc2 tumor size for each group reached ~180 mm^3 in volume (day 0). The drug was given daily via oral gavage at a dosage of 120 mg/kg from days 0 to 4 and from days 7 to 9.
# In this set of studies (Fig 2), treatments were initiated when the average group HCT116-luc2 tumor size reached ~100 mm^3 in volume. […] The drug was given daily, from days 0 to 4 and from days 7 to 11. In addition to the conventional tumor volume measurements by caliper, we performed BLI of firefly luciferase activity to access tumor viability on the days indicated.
# HCT116-luc2 tumors [2] = assay: H&E histology of tumor tissue sections; type: in vivo, nu/nu mice; conditions: sorafenib 120 mg/kg, days 0-4 and 7-9; day 9
# Experimental: Tumor tissues were fixed in 10% neutral buffered formalin, followed by routine process and embedment in paraffin. Tissue sections (5 μm) were prepared on electrostatically charged glass slides and then baked at 60°C overnight. After washing the slides with three washes in xylene, the slides were rehydrated through a series of graded ethanol (100%, 90% and 70%) to water. The prepared slides were then stained with hematoxylin and eosin.
# Fig 1 Sorafenib, a tyrosine kinase inhibitor, effectively suppresses HCT116-luc2 tumor growth. Nude mice bearing subcutaneous tumors on the flanks were treated with vehicle or with 120 mg/kg of sorafenib on days 0–4 and days 7–9 via oral gavage. A: Longitudinal tumor volume measurements of subcutaneous HCT116-luc2 tumors (***p < 0.0001, n = 5 per group, two-way ANOVA, mean and s.e.m., representative of three studies) B: H&E staining of tumor tissue sections harvested from the vehicle and sorafenib-treated (120 mg/kg) tumors on day 9. […] Bar: 50 μm.
# HCT116-luc2 tumors [3] = assay: BRS-680 fluorescence imaging (FLI) of tumor bombesin receptor expression; type: in vivo, nu/nu mice; conditions: for inhibition of BRS-680 tumor FLI signal: sorafenib 40 mg/kg daily oral gavage
# Experimental: In addition, the imager is equipped with suitable excitation and emission filter sets for FLI of BRS-680 and TfV-750. Tumor metabolic activities were visualized by IV injection of a mixture of these two NIR imaging agents (2 nmol/mouse each in a total volume of 100 μl of PBS). The agents were injected 16 h prior to FLI imaging in order to allow optimal probe uptake and clearance of unbound probe. For the longitudinal FLI imaging studies, separate cohorts were used for FLI acquisitions on days 1 (n = 10, imaging agents injected on day 0), 2 (n = 10, injected on day 1), and 3 (n = 5, injected on day 2) due to the extended time required for probe washout. […] Fluorescent signal is represented as radiant efficiency [(p/sec/cm^2/sr)/(μW/cm^2)] or normalized fluorescent signal where appropriate.
# (§1) BLI and FLI images were analyzed using the Living Image software (version 4.4 for Windows, PerkinElmer Inc.). Tumor BLI and FLI signals were quantified using the region of interest (ROI) tools, and the total optical signals were calculated as total flux (photon counts/sec) and total radiant efficiency [(p/s)/(μW/cm^2)], respectively. For greater accuracy, all FLI data was corrected for background levels based on specific measurements as described in the figure legends. All PET images were represented as standard uptake value (SUV) using the VivoQuant 3.0 software and tumor-specific ^18F-FDG uptake levels were also calculated using SUVtotal. Several similar imaging experiments were performed using this particular HCT116-luc2 tumor model to visualize treatment responses to sorafenib. […] For each treatment group, we calculated relative tracer uptake in tumors using the day 0 uptake level as 100%. For statistical analysis, we used the GraphPad Prism software (version 6.0 for Windows, La Jolla, CA). Data are presented as the mean ± standard error of the mean (s.e.m.). Statistical analysis was conducted using ANOVA or Student’s t-test, as indicated. P < 0.05 was the cutoff for being considered statistically significant.
# Besides interfering with glycolytic activity, we believe inhibition of the Ras/Raf/MEK/ERK pathways with sorafenib has a broader, global impact on tumor energy metabolism. […] We wonder if these FLI probes can detect early, yet subtle metabolic disturbances induced by sorafenib treatment prior to the later regression of treated tumors, like we saw with ^18F-FDG PET imaging. […] Separate cohorts were used for FLI acquisitions on days 1, 2, and 3 due to the extended time required for probe washout. Of note, the day 1 cohort was re-injected with probe for imaging on day 10 to assess ultimate treatment efficacy. […]
# HCT116-luc2 tumors [4] = assay: 18F-FDG microPET imaging of tumor glucose uptake; type: in vivo, nu/nu mice; conditions: sorafenib 40 mg/kg daily oral gavage; days 2 and 3 post-treatment; n = 5 per group
# Experimental: We also performed microPET imaging using ^18F-FDG as a tracer for detecting changes in tumor glucose uptake with or without treatment. Images were acquired using the G8 PET/CT system (PerkinElmer Inc.). For each mouse, 100 μCi of ^18F-FDG (PETNET Solutions Inc., Malvern PA) was injected intravenously (IV), and all mice were kept warm and maintained under 1.5% isoflurane gas anesthesia for 1 hour for tracer uptake. Subsequently, the mice were imaged with a standard 10 min static F-18 imaging protocol. The G8 PET/CT system automatically performed image reconstruction after acquisition and provided 3D tomography imaging in the DICOM format. We were able to image the same cohorts (n = 5) throughout the course of study since ^18F has a relative short decay half-life (~110 min). […]
# (§2) BLI and FLI images were analyzed using the Living Image software (version 4.4 for Windows, PerkinElmer Inc.). Tumor BLI and FLI signals were quantified using the region of interest (ROI) tools, and the total optical signals were calculated as total flux (photon counts/sec) and total radiant efficiency [(p/s)/(μW/cm^2)], respectively. […] All PET images were represented as standard uptake value (SUV) using the VivoQuant 3.0 software and tumor-specific ^18F-FDG uptake levels were also calculated using SUVtotal. […] For each treatment group, we calculated relative tracer uptake in tumors using the day 0 uptake level as 100%. […]
# HCT116-luc2 tumors [5] = assay: BLI of firefly luciferase activity (tumor viability) in HCT116-luc2 xenografts; type: in vivo, nu/nu mice
# Experimental: Optical BLI and FLI were performed using the IVIS® SpectrumCT, which is capable of imaging multiple mice simultaneously (up to 5 mice). To generate BLI signals, the tumor-bearing mice received IP injections of 75 mg/kg of D-luciferin (potassium salt, PerkinElmer Inc.) and were placed into the imager for sequential image acquisitions (settings: FOV = D, Binning = 16, F/Stop = 1, Open filter, 2 min delay between each acquisition) under 1–2% of isoflurane anesthesia. Maximal bioluminescence output for each tumor was determined by sequentially acquiring a BLI image every two minutes for up to 16 min. Typical peak imaging time for the HCT116-luc2 subcutaneous model was approximately 10 min, and BLI images are represented in units of radiance (p/sec/cm^2/sr).
# as §1, with “SUVtotal.” for “SUVtotal. Several similar imaging experiments were performed using this particular HCT116-luc2 tumor model to visualize treatment responses to sorafenib.”
# HCT116-luc2 tumors [6] = assay: TfV-750 fluorescence imaging (FLI) of tumor transferrin receptor expression; type: in vivo, nu/nu mice
# Experimental: In addition, the imager is equipped with suitable excitation and emission filter sets for FLI of BRS-680 and TfV-750. Tumor metabolic activities were visualized by IV injection of a mixture of these two NIR imaging agents (2 nmol/mouse each in a total volume of 100 μl of PBS). The agents were injected 16 h prior to FLI imaging in order to allow optimal probe uptake and clearance of unbound probe. For the longitudinal FLI imaging studies, separate cohorts were used for FLI acquisitions on days 1 (n = 10, imaging agents injected on day 0), 2 (n = 10, injected on day 1), and 3 (n = 5, injected on day 2) due to the extended time required for probe washout. […]
# as §2
# HT-29 tumors = assay: Biodistribution and in vivo imaging kinetics of the probes in HT-29 tumor-bearing mice; parameters: species or system nu/nu mice
# Experimental: (§3) Selectivity was assessed in vitro using HT-29 human colorectal cells; fluorescence signal on BRS-680-labeled cells was ~7X greater than either the scrambled peptide version of the probe or when 100X unlabeled bombesin peptide was used to block labeling (S2 Fig) as assessed by both flow cytometry and fluorescence microscopy. […] Tumor tissue localization co-localized well with ex vivo anti-bombesin receptor staining (S5 Fig).
# Selectivity was assessed in vitro by flow cytometry and fluorescence microscopy using HT-29 human colorectal cells; fluorescence signal on TfV-750-labeled cells was ~15X greater than when 100 μM unlabeled recombinant transferrin was used to block labeling (S7 Fig). […] Animals were bled at indicated times, and plasma fluorescence was determined using a microplate assay. […] The probe has good tissue penetration into tumors, as its binding pattern in tumor sections (using a 645 nm FLI surrogate to improve microscopy imaging) correlates well with the transferrin receptor expression on cancer cells and is not associated with the tumor vasculature (S10 Fig).
# Blood samples were obtained via terminal cardiac puncture and plasma fluorescence was quantified on a fluorescence plate reader. […] Mice were sacrificed 24 hours post-injection and tissues were excised, rinsed with PBS, and imaged on the FMT 4000 (PerkinElmer, Waltham, MA), in epifluorescence mode. Epifluorescence levels were determined using TrueQuant™ FMT software and are represented as Mean Fluorescence to compensate for differences in tissue size. (TIF) Click here for additional data file.
# Noninvasive fluorescence tomographic imaging datasets were used to quantify kinetic fluorescence changes in the tumors, heart, and liver. An optimal imaging time point of 24h was determined based on specificity of tumor signal and tumor’s signal-to-background ratio. (TIF) Click here for additional data file.
# B: Quantification of tissue epifluorescence images, with data inset representing plasma pharmacokinetics assessed from serial bleeds of mice measured on a microplate fluorimeter. (TIF) Click here for additional data file.
# Elevated TfV-750 signals in the liver and tumor indicate higher iron metabolism in these tissues. (TIF) Click here for additional data file.
# [7] = Plasma pharmacokinetics of the probes, fluorescence microplate assay; type: in vivo; conditions: CD-1 mice; 2 nmoles IV; plasma fluorescence on a microplate reader
# Experimental: as §3
# Selectivity was assessed in vitro by flow cytometry and fluorescence microscopy using HT-29 human colorectal cells; fluorescence signal on TfV-750-labeled cells was ~15X greater than when 100 μM unlabeled recombinant transferrin was used to block labeling (S7 Fig). […] Animals were bled at indicated times, and plasma fluorescence was determined using a microplate assay. […]
# Blood samples were obtained via terminal cardiac puncture and plasma fluorescence was quantified on a fluorescence plate reader. […] Epifluorescence levels were determined using TrueQuant™ FMT software and are represented as Mean Fluorescence to compensate for differences in tissue size. […]
# B: Quantification of tissue epifluorescence images, with data inset representing plasma pharmacokinetics assessed from serial bleeds of mice measured on a microplate fluorimeter. […]
# [8] = sorafenib 40 mg/kg, first 3 days of treatment
# [9] = sorafenib 40 mg/kg, within 2 days of treatment, n = 5 per group
# [10] = sorafenib 120 mg/kg daily for 8 days, imaged day 9, stated for both FLI probes
# [11] = HT-29 tumor-bearing mice, 2 nmol/mouse IV
# [12] = HT-29 tumor-bearing nu/nu mice, 2 nmol IV, tissues excised 24 h post-injection, epifluorescence
compound,measurement,setting,value
"CNC(=O)c1cc(Oc2ccc(NC(=O)Nc3ccc(Cl)c(C(F)(F)F)c3)cc2)ccn1 [sorafenib, Sorafenib]",decrease of overt tumor size,"[1]; sorafenib 40 mg/kg daily, by day 10, PET study cohort, n = 5 per group",~ 50%
same,growth inhibition in comparison with untreated control tumors,"[1]; sorafenib 40 mg/kg, by day 10 or 11, over multiple studies",50–90%
same,reduction in tumor volume,[1]; [8],no significant reduction
same,reduction in size (tumor volume),[1]; [9],no significant reduction
same,"efficacy against tumor growth by tumor volume, versus vehicle","[1]; sorafenib 120 mg/kg oral gavage, days 0-4 and 7-9, n = 5 per group",clearly demonstrated the drug’s efficacy
same,change in tumor volume,"[1]; sorafenib 120 mg/kg, day 2, n = 5 per group",no significant change
same,tumor death in H&E stained tumor tissue sections,HCT116-luc2 tumors [2],extensive tumor death
same,inhibition of BRS-680 tumor FLI signal,"HCT116-luc2 tumors [3]; day 2, n = 10",40%
same,inhibition of BRS-680 tumor FLI signal,"HCT116-luc2 tumors [3]; day 3, n = 5",79%
same,inhibition of BRS-680 tumor signal,"HCT116-luc2 tumors [3]; sorafenib 40 mg/kg, within the 2-3 day window, normalized to vehicle control",40–80%
same,reduction in BRS-680 FLI signal as compared to controls,HCT116-luc2 tumors [3]; [10],≥ 40%
same,inhibition of tumor uptake of 18F-FDG,HCT116-luc2 tumors [4],55–60% and 50–60%
same,reduction in BLI signal,HCT116-luc2 tumors [5]; [8],no significant reduction
same,reduction in viability (assessed by BLI),HCT116-luc2 tumors [5]; [9],no significant reduction
same,BLI and tumor volume results compared with the 120 mg/kg dose,"HCT116-luc2 tumors [5]; sorafenib 80 mg/kg daily, days 0-4 and 7-11",Comparable results
same,suppression of tumor viability (BLI),"HCT116-luc2 tumors [5]; sorafenib 120 mg/kg daily, days 0-4 and 7-11, by day 11, n = 5 per group",~ 90%
same,reduction in tumor BLI signals,"HCT116-luc2 tumors [5]; sorafenib 120 mg/kg, 2 days after the treatment began, n = 5 per group",~ 40%
same,inhibition of TfV-750 tumor FLI signal,"HCT116-luc2 tumors [6]; sorafenib 40 mg/kg daily oral gavage, day 3, n = 5",65% and ~ 70%
same,reduction in TfV-750 FLI signal as compared to controls,HCT116-luc2 tumors [6]; [10],≥ 40%
TfV-750: PEGylated recombinant transferrin with a NIR fluorescent reporter (ex/em 750/770 nm); transferrin receptor imaging probe,optimal time for in vivo tumor imaging post injection,HT-29 tumors; [11],6 to 24 h
same,time to (near) complete clearance from the system,HT-29 tumors; [11],about 4 days
same,biodistribution to tumors in collected tissues,HT-29 tumors; [12],good biodistribution to tumors
same,route of clearance in collected tissues,HT-29 tumors; [12],efficient clearance via kidney excretion
same,circulation half-life (plasma t1/2),[7],~ 9 h
